Columns and labels:
bedstraw = test: Test B pre/postemergence bedstraw; format: in vivo, Galium aparine; conditions: Postemergence
Method in brief: (§1)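 Herbicidal effect was estimated by eye on a ten-point control scale after plants spent twelve to sixteen days in a greenhouse following soil or foliar treatment. Foliar sprays targeted plants at one to four leaves; all doses were formulated in a non-phytotoxic solvent with surfactant.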

blackgrass = test: Test B pre/postemergence blackgrass; format: in vivo, Alopecurus myosuroides
Method in brief: as §1

surinam grass = test: Test B pre/postemergence surinam grass; format: in vivo, Brachiaria decumbens
Method in brief: as §1

corn = test: Test B pre/postemergence corn; format: in vivo, Zea mays
Method in brief: as §1

giant foxtail = test: Test B pre/postemergence giant foxtail; format: in vivo, Setaria faberii
Method in brief: as §1

morningglory = test: Test B pre/postemergence morningglory; format: in vivo, Ipomoea hederacea
Method in brief: as §1

pigweed = test: Test B pre/postemergence pigweed; format: in vivo, Amaranthus retroflexus
Method in brief: as §1

rape = test: Test B pre/postemergence rape; format: in vivo, Brassica napus
Method in brief: as §1

soybean = test: Test B pre/postemergence soybean; format: in vivo, Glycine max
Method in brief: as §1

sugar beet = test: Test B pre/postemergence sugar beet; format: in vivo, Beta vulgaris
Method in brief: as §1

velvetleaf = test: Test B pre/postemergence velvetleaf; format: in vivo, Abutilon theophrasti
Method in brief: as §1

purple nutsedge = test: Test B pre/postemergence purple nutsedge; format: in vivo, Cyperus rotundus
Method in brief: as §1

rice = test: Test B flood test rice; format: in vivo, Oryza sativa
Method in brief: (§2)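 Flood test on plants grown to the 2-leaf stage; treated plants kept in greenhouse twelve to sixteen days, then visually rated against controls on a 0 (no effect) to 10 (complete control) scale.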

smallflower flatsedge = test: Test B flood test smallflower flatsedge; format: in vivo, Cyperus difformis
Method in brief: as §2

duck salad = test: Test B flood test duck salad; format: in vivo, Heteranthera limosa
Method in brief: as §2

bamyardgrass = test: Test B flood test barnyardgrass; format: in vivo, Echinochloa crus-galli
Method in brief: as §2

[1] = Rate 125 g/ha, scale 0 to 10, 0 is no effect, 10 is complete control
[2] = Rate 500 g/ha, scale of 0 to 10 where 0 is no effect and 10 is complete control
[3] = Postemergence, Rate 125 g/ha, scale 0 to 10, 0 is no effect, 10 is complete control
[4] = Postemergence, Rate 250 g/ha, scale 0 to 10, 0 is no effect, 10 is complete control
[5] = Postemergence, Rate 500 g/ha, scale of 0 to 10 where 0 is no effect and 10 is complete control
[6] = Preemergence, Rate 62 g/ha, scale 0 to 10 (0 no effect, 10 complete control)
[7] = Preemergence, Rate 125 g/ha, scale of 0 to 10 where 0 is no effect and 10 is complete control
[8] = Preemergence, Rate 250 g/ha, scale of 0 to 10 where 0 is no effect and 10 is complete control
[9] = Preemergence, Rate 500 g/ha, scale 0 to 10, 0 is no effect, 10 is complete control
[10] = Rate 62 g/ha, Postemergence, scale of 0 to 10 where 0 is no effect and 10 is complete control
[11] = Preemergence, Rate 250 g/ha, scale 0 to 10, 0 is no effect, 10 is complete control
[12] = Postemergence section (flood test species), Rate 500 g/ha, scale of 0 to 10 where 0 is no effect and 10 is complete control
[13] = flood test species, listed under Postemergence, Rate 250 g/ha, scale 0 to 10, 0 is no effect, 10 is complete control
[14] = Postemergence (flood test), Rate 125 g/ha, scale 0 to 10, 0 is no effect, 10 is complete control
[15] = Rate 62 g/ha, Postemergence (flood test species), scale of 0 to 10 where 0 is no effect and 10 is complete control
[16] = Postemergence, Rate 250 g/ha, scale 0 to 10
[17] = Rate 125 g/ha, Postemergence, scale 0 to 10, 0 is no effect, 10 is complete control
[18] = Postemergence block (flood test species), Rate 250 g/ha, scale 0 to 10
[19] = Rate 125 g/ha, Postemergence section (flood test species), scale 0 to 10, 0 is no effect, 10 is complete control

CSCCn1c(=O)on(C(=O)N(c2ccccc2)C(C)C)c1=O [Compound 419]
0: Plant response rating, Bedstraw (bedstraw; [1]) | Plant response rating, Bedstraw (bedstraw; Rate 250 g/ha, scale 0 to 10, 0 is no effect, 10 is complete control) | Bedstraw plant response rating (bedstraw; [2]) | Bedstraw plant response rating (bedstraw; Rate 62 g/ha, scale of 0 to 10 where 0 is no effect and 10 is complete control) | Plant response rating, Blackgrass (blackgrass; [3]) | Plant response rating, Blackgrass (blackgrass; [4]) | Plant response rating, Blackgrass (blackgrass; [6]) | Plant response rating, Blackgrass (blackgrass; [7]) | Blackgrass plant response rating (blackgrass; [8]) | Blackgrass plant response rating (blackgrass; [10]) | Plant response rating, B. signalgrass (surinam grass; [3]) | Plant response rating, B. signalgrass (surinam grass; [4]) | Plant response rating, B. signalgrass (surinam grass; [6]) | Plant response rating, B. signalgrass (surinam grass; [7]) | B. signalgrass plant response rating (surinam grass; [10]) | Plant response rating, Corn (corn; [3]) | Plant response rating, Corn (corn; [4]) | Corn plant response rating (corn; [5]) | Plant response rating, Corn (corn; [6]) | Plant response rating, Corn (corn; [7]) | Corn plant response rating (corn; [11]) | Corn plant response rating (corn; [9]) | Corn plant response rating (corn; [10]) | Plant response rating, Giant foxtail (giant foxtail; [3]) | Plant response rating, Giant foxtail (giant foxtail; [6]) | Giant foxtail plant response rating (giant foxtail; [10]) | Plant response rating, Morningglory (morningglory; [6]) | Plant response rating, Morningglory (morningglory; [7]) | Plant response rating, Redroot pigweed (pigweed; [4]) | Redroot pigweed plant response rating (pigweed; [5]) | Plant response rating, Redroot pigweed (pigweed; [6]) | Plant response rating, Redroot pigweed (pigweed; [7]) | Plant response rating, Rape (rape; [4]) | Rape plant response rating (rape; [5]) | Plant response rating, Rape (rape; [6]) | Plant response rating, Rape (rape; [7]) | Plant response rating, Soybean (soybean; [6]) | Plant response rating, Soybean (soybean; [7]) | Soybean plant response rating (soybean; [11]) | Soybean plant response rating (soybean; [9]) | Plant response rating, Sugarbeets (sugar beet; [4]) | Sugarbeets plant response rating (sugar beet; [5]) | Plant response rating, Sugarbeets (sugar beet; [6]) | Plant response rating, Sugarbeets (sugar beet; [7]) | Plant response rating, Velvetleaf (velvetleaf; [4]) | Plant response rating, Velvetleaf (velvetleaf; [6]) | Plant response rating, Velvetleaf (velvetleaf; [7]) | Plant response rating, Nutsedge (purple nutsedge; [4]) | Nutsedge plant response rating (purple nutsedge; [5]) | Plant response rating, Nutsedge (purple nutsedge; [6]) | Plant response rating, Nutsedge (purple nutsedge; [7]) | Nutsedge plant response rating (purple nutsedge; [11]) | Nutsedge plant response rating (purple nutsedge; [9]) | Plant response rating, Rice (rice; [13]) | Plant response rating, S. Flatsedge (smallflower flatsedge; [13]) | Plant response rating, Ducksalad (duck salad; [14]) | Ducksalad plant response rating (duck salad; [12]) | Ducksalad plant response rating (duck salad; [15]) | Plant response rating, Ducksalad (duck salad; [13]) | Plant response rating, Barnyardgrass (bamyardgrass; [14]) | Barnyardgrass plant response rating (bamyardgrass; [12]) | Barnyardgrass plant response rating (bamyardgrass; [15]) | Plant response rating, Barnyardgrass (bamyardgrass; [13])
8: B. signalgrass plant response rating (surinam grass; Preemergence, Rate 500 g/ha, scale of 0 to 10 where 0 is no effect and 10 is complete control)
3: Blackgrass plant response rating (blackgrass; [9]) | Plant response rating, Soybean (soybean; [4]) | Soybean plant response rating (soybean; [5]) | Sugarbeets plant response rating (sugar beet; [11]) | S. Flatsedge plant response rating (smallflower flatsedge; [12])
6: Giant foxtail plant response rating (giant foxtail; [5]) | Redroot pigweed plant response rating (pigweed; [11])
4: Blackgrass plant response rating (blackgrass; [5]) | Velvetleaf plant response rating (velvetleaf; [9])
5: Giant foxtail plant response rating (giant foxtail; [9]) | Plant response rating, Morningglory (morningglory; [4]) | Morningglory plant response rating (morningglory; [5]) | Sugarbeets plant response rating (sugar beet; [9])
10: Redroot pigweed plant response rating (pigweed; [9])
2: B. signalgrass plant response rating (surinam grass; [5]) | B. signalgrass plant response rating (surinam grass; [8]) | Giant foxtail plant response rating (giant foxtail; [11]) | Morningglory plant response rating (morningglory; [9]) | Rape plant response rating (rape; [11]) | Rape plant response rating (rape; [9]) | Velvetleaf plant response rating (velvetleaf; [5]) | Rice plant response rating (rice; [12])
1: Plant response rating, Giant foxtail (giant foxtail; [4]) | Plant response rating, Giant foxtail (giant foxtail; [7]) | Morningglory plant response rating (morningglory; [11]) | Velvetleaf plant response rating (velvetleaf; [11])

CC(C)N(C(=O)n1oc(=O)n(CC2=NOCCC2)c1=O)c1ccccc1 [Compound 430]
2: Blackgrass plant response rating (blackgrass; [10]) | Plant response rating, B. signalgrass (surinam grass; [7]) | Corn plant response rating (corn; [16]) | Corn plant response rating (corn; [9]) | Morningglory plant response rating (morningglory; [17]) | Redroot pigweed plant response rating (pigweed; [11]) | Redroot pigweed plant response rating (pigweed; [17]) | Plant response rating, Velvetleaf (velvetleaf; [7]) | Nutsedge plant response rating (purple nutsedge; [16])
3: Bedstraw plant response rating (bedstraw; [2]) | Plant response rating, Blackgrass (blackgrass; [7]) | Blackgrass plant response rating (blackgrass; [17]) | B. signalgrass plant response rating (surinam grass; [11]) | B. signalgrass plant response rating (surinam grass; [9]) | Morningglory plant response rating (morningglory; [16]) | Morningglory plant response rating (morningglory; [5]) | Redroot pigweed plant response rating (pigweed; [16]) | Redroot pigweed plant response rating (pigweed; [5]) | Soybean plant response rating (soybean; [16]) | Soybean plant response rating (soybean; [5]) | Velvetleaf plant response rating (velvetleaf; [5])
4: Corn plant response rating (corn; [5]) | Rape plant response rating (rape; [9]) | Velvetleaf plant response rating (velvetleaf; [11])
10: Plant response rating, Giant foxtail (giant foxtail; [6]) | Plant response rating, Giant foxtail (giant foxtail; [7]) | Giant foxtail plant response rating (giant foxtail; [11]) | Giant foxtail plant response rating (giant foxtail; [9])
8: Blackgrass plant response rating (blackgrass; [5]) | B. signalgrass plant response rating (surinam grass; [5]) | Giant foxtail plant response rating (giant foxtail; [17])
0: Bedstraw plant response rating (bedstraw; Rate 250 g/ha, scale 0 to 10) | Bedstraw plant response rating (bedstraw; [1]) | Plant response rating, Blackgrass (blackgrass; [6]) | B. signalgrass plant response rating (surinam grass; [10]) | Plant response rating, Corn (corn; [6]) | Plant response rating, Corn (corn; [7]) | Corn plant response rating (corn; [11]) | Corn plant response rating (corn; [10]) | Corn plant response rating (corn; [17]) | Plant response rating, Morningglory (morningglory; [6]) | Plant response rating, Morningglory (morningglory; [7]) | Morningglory plant response rating (morningglory; [11]) | Morningglory plant response rating (morningglory; [9]) | Plant response rating, Redroot pigweed (pigweed; [6]) | Plant response rating, Redroot pigweed (pigweed; [7]) | Rape plant response rating (rape; [16]) | Rape plant response rating (rape; [5]) | Plant response rating, Rape (rape; [6]) | Plant response rating, Rape (rape; [7]) | Rape plant response rating (rape; [11]) | Rape plant response rating (rape; [17]) | Plant response rating, Soybean (soybean; [6]) | Plant response rating, Soybean (soybean; [7]) | Soybean plant response rating (soybean; [11]) | Soybean plant response rating (soybean; [9]) | Sugarbeets plant response rating (sugar beet; [16]) | Sugarbeets plant response rating (sugar beet; [5]) | Plant response rating, Sugarbeets (sugar beet; [6]) | Plant response rating, Sugarbeets (sugar beet; [7]) | Sugarbeets plant response rating (sugar beet; [11]) | Sugarbeets plant response rating (sugar beet; [9]) | Sugarbeets plant response rating (sugar beet; [17]) | Velvetleaf plant response rating (velvetleaf; [16]) | Plant response rating, Velvetleaf (velvetleaf; [6]) | Velvetleaf plant response rating (velvetleaf; [17]) | Plant response rating, Nutsedge (purple nutsedge; [6]) | Plant response rating, Nutsedge (purple nutsedge; [7]) | Nutsedge plant response rating (purple nutsedge; [11]) | Nutsedge plant response rating (purple nutsedge; [9]) | Nutsedge plant response rating (purple nutsedge; [17]) | Rice plant response rating (rice; [18]) | Rice plant response rating (rice; [12]) | Rice plant response rating (rice; [19]) | S. Flatsedge plant response rating (smallflower flatsedge; [18]) | S. Flatsedge plant response rating (smallflower flatsedge; [12]) | S. Flatsedge plant response rating (smallflower flatsedge; [19]) | Ducksalad plant response rating (duck salad; [18]) | Ducksalad plant response rating (duck salad; [12]) | Ducksalad plant response rating (duck salad; [15]) | Ducksalad plant response rating (duck salad; [19]) | Barnyardgrass plant response rating (bamyardgrass; [18]) | Barnyardgrass plant response rating (bamyardgrass; [12]) | Barnyardgrass plant response rating (bamyardgrass; [15]) | Barnyardgrass plant response rating (bamyardgrass; [19])
1: Plant response rating, B. signalgrass (surinam grass; [6]) | B. signalgrass plant response rating (surinam grass; [17]) | Soybean plant response rating (soybean; [17])
7: Blackgrass plant response rating (blackgrass; [16]) | Blackgrass plant response rating (blackgrass; [11]) | Redroot pigweed plant response rating (pigweed; [9]) | Velvetleaf plant response rating (velvetleaf; [9])
6: B. signalgrass plant response rating (surinam grass; Postemergence, Rate 250 g/ha, scale 0 to 10, 0 no effect, 10 complete control) | Giant foxtail plant response rating (giant foxtail; [10]) | Nutsedge plant response rating (purple nutsedge; [5])
9: Blackgrass plant response rating (blackgrass; [9]) | Giant foxtail plant response rating (giant foxtail; [16]) | Giant foxtail plant response rating (giant foxtail; [5])

Source: US6737383B1, “Herbicidal oxadiazolidines” (priority 1999, dated 2004)
